Activity calls are given as the source filed them.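 The calls were made as follows: active = compounds giving half or more protection of infected cells from virus-caused growth loss, again on retest; inactive = the rest.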
Test system: CEM cells HIV-1 protection, formazan growth assay
Test: NCI AIDS Antiviral Assay
Conditions: for IC50: measured here: growth of uninfected CEM cells
Outline: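 CEM (human) cells, HIV-1 infected vs uninfected, 5-point dosing, formazan growth read-out. Retest threshold 50% protection.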

Compound	EC50 [µM]	IC50 [µM]	outcome
COC(=O)c1ccc(C(=O)NC(Cc2ccc(Oc3cc(CC(NC(=O)c4ccccc4C(=O)OC)C(=O)OC)ccc3OC)cc2)C(=O)OC)cc1 (stereo not drawn)	> 200	16.2	
CCN(CC)c1c(C(C)(C)C)c(=O)n2ccsc2c1OC(C)=O	> 200	32.4	
O=C1OC(C2Cc3ccc4c(c3C2=O)CCCC4)c2ccccc21 (stereo not drawn)	> 200	33.9	
C[C@@]1(OC(=O)c2cc([N+](=O)[O-])cc([N+](=O)[O-])c2)C[C@@H]2CCCC[C@@H]21			inactive
CS(=O)(=O)c1ccc(N=C/C=C/Nc2ccc(S(C)(=O)=O)cc2)cc1	> 200	> 200	
COC(=O)[C@@H]1[C@H]2[C@H](OC(=O)c3ccccc3)CCN2C(=O)[C@H]1O	> 200	75.9	
C[N+](C)(C)CC1CCC(C[N+](C)(C)C)C1=NO (stereo not drawn)	> 501	> 501	
O=Cc1nc2ccccc2s1			inactive
S=C(NC1CCCCC1)SSSC(=S)NC1CCCCC1	> 200	27.5	
CCOC(=O)C1C(=O)CC(C)(O)C(C(=O)OCC)C1c1ccc(O)c(OC)c1 (stereo not drawn)	> 200	> 200	
Cc1ccc2oc(=O)c(C#N)c(/C=C\c3ccccc3O)c2c1	> 100	5.62	
COC1(C)CCC2(O)C(=O)OC3C(O)COC32O1 (stereo not drawn)	> 200	> 200	
O=C1NC(=O)C(=Cc2cccnc2)C(=O)N1	> 200	> 200	
O=[N+]([O-])c1ccc2[nH]ncc2c1Cl	> 200	9.77	
S=c1sc2nc(Cl)nc(Cl)c2s1	> 200	13.2	
O=C1NC(=O)C(C(=O)C(=O)Nc2ccc(Br)cc2)C(=O)N1	> 191	> 191	
CN(C)C(=S)SN(C)C(=O)Nc1ccccc1	> 200	13.2	
NS(=O)(=O)c1ccccc1[N+](=O)[O-]			inactive
CC(C)(O)[C@H]1CC[C@@]23CCCC(=O)C2(C1)C3 (stereo partly drawn)			inactive
COc1cc(OS(=O)(=O)O)c2c(c1)cc(O)c1c(=O)cc(C)oc12	> 151	> 151	
O=C(NCCCn1ccnc1[N+](=O)[O-])C(=O)NCCCn1ccnc1[N+](=O)[O-]	> 200	> 200	
Cc1ccc(-c2nc(SCC(=O)O)n[nH]2)cc1	> 1000	708	

Compound	EC50 [µM]	IC50 [µM]	outcome
Oc1cc(Cl)cc2cc(Br)cnc12			inactive
NC(=O)N/N=C(/CC1C(=O)Oc2ccccc21)c1ccccc1O (stereo not drawn)	> 550	295	
CC1(C)CC(=O)C2=C(C1)S/C(=C1/SC3=C(S1)C(=O)CC(C)(C)C3)S2	> 6.92	> 6.92	
CC(=O)Oc1ccc2c(c1)c1c(=O)oc(C)nc1n2Cc1ccccc1	> 200	66.1	
COc1ccc(NC(=O)C(=O)C(C(=O)c2ccccc2)C2OC(=O)c3ccccc32)c([N+](=O)[O-])c1 (stereo not drawn)	> 135	> 135	
c1ccc(C2=Nc3nc4ccccc4n3C(c3ccccc3)C2)cc1 (stereo not drawn)	> 151	> 151	
COC1/C=C/OC2(C)Oc3c(C)c(O)c4c(O)c(c(CNCc5ccccc5)c(O)c4c3C2=O)NC(=O)/C(C)=C\C=C\C(C)C(O)C(C)C(O)C(C)C(OC(C)=O)C1C (stereo not drawn)	> 200	1.51	
CC[C@]1(O)CC[C@H]2[C@@H]3CCC4=CC(=O)CC[C@@H]4[C@H]3CC[C@@]21CC	> 200	49	
O=CC1=CCC2c3[nH]c4ccccc4c3CCN2C1 (stereo not drawn)	> 372	41.7	
CC(C)C(C(=O)O)N(CC1(O)OCC(O)C(O)C1O)N=O (stereo not drawn)			inactive
S=P(N1CCOCC1)(N1CC1)N1CC1	> 200	5.25	
O=c1c2cc3c(=O)n(CCc4ccccc4CO)c(=O)c3cc2c(=O)n1CCc1ccccc1CO	> 10.7	> 10.7	
COCC12CN(C)C3C4C(OC)C1C3(C(OC)CC2O)C1CC2(O)C(OC)C(O)C4(OC(C)=O)C1C2OC(=O)c1ccccc1 (stereo not drawn)			inactive
OC[C@@H]1C2CCC([C@@H]1CO)C2(Cc1ccccc1)Cc1ccccc1	> 89.1	> 89.1	
CC(C)CC(=O)[O-].CC(C)CC(=O)[O-].N.N.N.N.[Co+3].[O-][Cl+3]([O-])([O-])[O-]			inactive
O=C1c2ccc([N+](=O)[O-])cc2C(=O)N1CC[P+](c1ccccc1)(c1ccccc1)c1ccccc1	> 200	> 200	
CC(=O)OCC1OC(n2c(=S)n(-c3ccc(C)cc3)c(=O)c3ccccc32)C(OC(C)=O)C(OC(C)=O)C1OC(C)=O (stereo not drawn)	> 31.6	> 31.6	
O=C(CP(c1ccccc1)c1ccccc1)c1cccc(C(=O)CP(c2ccccc2)c2ccccc2)c1	> 200	33.1	
C[C@H]1CCCCC[C@@H]2CC(=O)CC2C(=O)CCC(=O)O1 (stereo partly drawn)	> 200	> 200	
O=C1N[C@H]2[C@H](O)[C@H](O)[C@@H](O)[C@H](O)[C@@H]2c2cc3c(c(O)c21)OCO3			inactive
O=C1C2c3[nH]c4ccccc4c3C3CCC(c4ccccc4)CC3C2C(=O)N1c1ccccc1 (stereo not drawn)			inactive
COc1ccc2nc3cccc([N+](=O)[O-])c3c(NCCN(C)C)c2c1	> 2	0.0977	

Compound	EC50 [µM]	IC50 [µM]	outcome
Cc1ccc(C2SCc3nc4ccccc4n32)cc1 (stereo not drawn)	> 200	1.02	
CSc1nc(C(N)=O)c(NC(=O)c2ccccc2)s1	> 200	166	
CCCCCCCCCCCCCCCCOC1OC(COC(C)=O)C(OC(C)=O)C(OC(C)=O)C1OC(C)=O (stereo not drawn)	> 12.6	> 12.6	
NCCCN(CCCCN(CCCN)C(=O)OCc1ccccc1)C(=O)OCc1ccccc1			inactive
O=c1oc2ccccc2cc1-n1nnc2cc([N+](=O)[O-])ccc21	> 8.91	> 8.91	
COc1ccc2[nH]c3c(C)c4ccnc(NCCCN(C)CCCNC(=O)NCCCN(C)CCCNc5nccc6c(C)c7[nH]c8ccc(OC)cc8c7c(C)c56)c4c(C)c3c2c1	> 5.01	0.891	
COc1ccc(N2C(=O)C3CSCN3C2=O)cc1 (stereo not drawn)	> 200	> 200	
CCOC(=O)c1sc2nc(SC)nc3c2c1N=CN3c1ccccc1Cl	> 100	> 100	
COCOc1c(C(OCOC)c2cnc(Sc3ccccc3)n2C)ccc(OC)c1OC (stereo not drawn)	> 200	110	
COC(=O)c1ccc2c(c1)C(O)NC(=O)O2 (stereo not drawn)	> 200	34.7	
CN(C)C(=Nc1nc(=[N+](C)C)ss1)N(C)C			inactive
CC12C=CC(=O)C=C1CCC1C3CCC(O)(C(=O)CO)C3(C)CC(O)C12F (stereo not drawn)			inactive
CCOC(=O)NC1=NCC(C)(C)S1			inactive
NC(=S)/N=C(/c1nc2ccc(Cl)cc2[nH]c1=O)C(O)c1ccccc1Cl (stereo not drawn)	> 617	589	
CCC1c2ccc3cc(OC)ccc3c2CCC1(C)C(=O)O (stereo not drawn)			inactive
CN(C(=O)C12C3C4C5C3C1(C(=O)O)C5C42)C(C)(C)C (stereo not drawn)	> 955	> 955	
CCCCCCCCCCSS(=O)(=O)c1ccc(C)cc1	> 21.9	9.55	
Oc1ccc(CCC2CCNc3ccccc32)cc1 (stereo not drawn)	> 5.01	> 5.01	
CCCCC(=O)c1c(O)nc2sccn2c1=O	> 200	155	
COc1ccc(/C(C#N)=C/c2cccc(N)c2)cc1	> 200	25.1	

Reference: PubChem BioAssay AID179 (DTP/NCI, 2004)
